Tests used:
3T3-L1 [1] = assay: compound was evaluated for their acute effects in vitro by measuring 2-Deoxyglucose (2DG) uptake in vehicle treated 3T3-L1 adipocytes at 60 uM dose.; format: functional
Mus musculus [2] = assay: compound was tested in vivo for hypoglycemic activity in 6-8 week old C57BL/6J ob/ob mouse at 10 mg/kg; format: functional
Mus musculus [3] = assay: compound was tested in vivo for hypoglycemic activity in 6-8 week old C57BL/6J ob/ob mouse at 50 mg/kg; format: functional
Rattus norvegicus [4] = species on record: Rattus norvegicus; assay: Compound was tested for inhibition of gluconeogenesis; format: functional; details: Rattus norvegicus; read-out: ED50
3T3-L1 [5] = assay: compound was evaluated for their acute effects in vitro by measuring 2-Deoxyglucose (2DG) uptake in vehicle treated 3T3-L1 adipocytes at 100 uM dose.; format: functional
3T3-L1 [6] = assay: compound was evaluated for their acute effects in vitro by measuring 2-Deoxyglucose (2DG) uptake in vehicle treated 3T3-L1 adipocytes at 10 uM dose.; format: functional
3T3-L1 [7] = assay: compound was evaluated for their acute effects in vitro by measuring 2-Deoxyglucose (2DG) uptake in vehicle treated 3T3-L1 adipocytes at 30 uM dose.; format: functional
3T3-L1 [8] = assay: compound was evaluated for their acute effects in vitro by measuring 2-Deoxyglucose (2DG) uptake in vehicle treated 3T3-L1 adipocytes at 3 uM dose.; format: functional
3T3-L1 [9] = assay: In vitro measurements 2-Deoxyglucose (2DG) uptake in vehicle treated 3T3-L1 adipocytes at 100 uM dose.; format: functional
Mus musculus [10] = assay: In vivo hypoglycemic activity expressed as glucose lowering relative to positive control in 6-8 week old C57BL/6J ob/ob mouse at 1 mg/kg.; format: functional
Mus musculus [11] = assay: compound was tested in vivo for hypoglycemic activity expressed as Glucose lowering relative to positive control in 6-8 week old C57BL/6J ob/ob mouse at 2.5 mg/kg; format: functional
Mus musculus [12] = assay: In vivo hypoglycemic activity expressed as glucose lowering relative to positive control in 6-8 week old C57BL/6J ob/ob mouse at 5 mg/kg.; format: functional
Mus musculus [13] = assay: compound was tested in vivo for hypoglycemic activity in 6-8 week old C57BL/6J ob/ob mouse; format: functional
Mus musculus [14] = assay: compound was tested in vivo for hypoglycemic activity expressed as Glucose lowering relative to positive control in 6-8 week old C57BL/6J ob/ob mouse; format: functional
Rattus norvegicus [15] = species on record: Rattus norvegicus; assay: Inhibition of gluconeogenesis in rat; format: functional
Rattus norvegicus [16] = species on record: Rattus norvegicus; assay: Percentage inhibition of Glucagon stimulated Gluconeogenesis in Isolated Rat Hepatocytes in vitro; format: functional, Hepatocyte
Rattus norvegicus [17] = species on record: Rattus norvegicus; assay: Percentage inhibition of basal stimulated Gluconeogenesis in Isolated Rat Hepatocytes in vitro; format: functional, Hepatocyte
Mus musculus [18] = assay: compound was tested in vivo for hypoglycemic activity in 6-8 week old C57BL/6J ob/ob mouse at 25 mg/kg; format: functional
3T3-L1 [19] = assay: In vitro measurements of 2-Deoxyglucose (2DG) uptake in vehicle treated 3T3-L1 adipocytes at 60 uM dose.; format: functional
L6 = assay: compound was evaluated for their acute effects in vitro by measuring 2-Deoxyglucose (2DG) uptake in vehicle treated L6 […] at 60 uM dose.; format: functional
Mus musculus [20] = assay: compound was tested in vivo for hypoglycemic activity expressed as Glucose lowering relative to positive control in 6-8 week old C57BL/6J ob/ob mouse at 25 mg/kg; format: functional
Mus musculus [21] = assay: compound was tested in vivo for hypoglycemic activity expressed as Glucose lowering relative to positive control in 6-8 week old C57BL/6J ob/ob mouse at 50 mg/kg; format: functional
Rattus norvegicus [22] = species on record: Rattus norvegicus; assay: Percentage inhibition of Glucagon- stimulated Gluconeogenesis in Isolated Rat Hepatocytes in vitro; format: functional, Hepatocyte
3T3-L1 [23] = assay: Acute effects in vitro by measuring 2-deoxyglucose (2DG) uptake in vehicle treated 3T3-L1 adipocytes at 10 uM dose.; format: functional
3T3-L1 [24] = assay: compound was evaluated for their acute effects in vitro by measuring 2-Deoxyglucose (2DG) uptake in vehicle treated 3T3-L1 adipocytes at 1 uM dose.; format: functional
Mus musculus [25] = assay: In vivo hypoglycemic activity expressed as glucose lowering relative to positive control in 6-8 week old C57BL/6J ob/ob mouse at 10 mg/kg; format: functional
3T3-L1 [26] = assay: Acute effects in vitro by measuring 2-deoxyglucose (2DG) uptake in vehicle treated 3T3-L1 adipocytes at 30 uM dose.; format: functional
3T3-L1 [27] = assay: compound was evaluated for their acute effects in vitro by measuring 2-Deoxyglucose (2DG) uptake in vehicle treated 3T3-L1 adipocytes at concentration of 10 micro M; format: functional
3T3-L1 [28] = assay: compound was evaluated for their acute effects in vitro by measuring 2-Deoxyglucose (2DG) uptake in vehicle treated 3T3-L1 adipocytes at concentration of 3 micro M; format: functional
3T3-L1 [29] = assay: compound was evaluated for their acute effects in vitro by measuring 2-Deoxyglucose (2DG) uptake in vehicle treated 3T3-L1 adipocytes at concentration of 30 micro M; format: functional
Mus musculus [30] = assay: compound was tested in vivo for hypoglycemic activity expressed as Glucose lowering relative to positive control in 6-8 week old C57BL/6J ob/ob mouse at 0.5 mg/kg; format: functional
3T3-L1 [31] = assay: In vitro by measurements of 2-Deoxyglucose (2DG) uptake in vehicle treated 3T3-L1 adipocytes at 3 uM dose.; format: functional
Mus musculus [32] = assay: compound was tested in vivo for hypoglycemic activity expressed as Glucose lowering relative to positive control in 6-8 week old C57BL/6J ob/ob mouse at 5 mg/kg; format: functional
Mus musculus [33] = assay: compound was tested in vivo for hypoglycemic activity expressed as Glucose lowering relative to positive control in 6-8 week old C57BL/6J ob/ob mouse at 0.1 mg/kg; format: functional
[34] = Rattus norvegicus, read-out: ED50

## CC(C)c1ccc(SC(Cc2ccc(Cl)cc2)C(=O)O)cc1 (configuration not stated)
3T3-L1 [1]
  Basal uptake: 102%
Mus musculus [2]
  Hypoglycemic activity: 0%
Mus musculus [3]
  Hypoglycemic activity: 90%
Rattus norvegicus [4]
  ED50: 10 mg/kg

## C1CCC(NC2CCCCC2)CC1.CC(C)c1ccc(OC(Cc2ccc(Cl)c(Cl)c2)C(=O)O)cc1 (configuration not stated)
3T3-L1 [5]
  Basal uptake: 225%
Mus musculus [3]
  Hypoglycemic activity: 65%
Rattus norvegicus [4]
  ED50: < 50 mg/kg

## CC(C)c1ccc(OC(C)(C[N-]SC(F)(F)F)Cc2ccc(Cl)cc2)cc1.[Na+] (configuration not stated)
3T3-L1 [6]
  Basal uptake: 132%
3T3-L1 [7]
  Basal uptake: 159%
3T3-L1 [8]
  Basal uptake: 127%
Mus musculus [2]
  Hypoglycemic activity: <0%
Rattus norvegicus [4]
  ED50: > 10 mg/kg

## CC(C)c1ccc(OC(C)(Cc2ccc(Cl)cc2)C(=O)O)cc1 (stereo in doubt; 28)
3T3-L1 [9]
  Basal uptake: 229%
Mus musculus [10]; 1 mg/kg
  Hypoglycemic activity: 47%
Mus musculus [11]
  Hypoglycemic activity: 88%
Mus musculus [12]; 5 mg/kg
  Hypoglycemic activity: 100%

## Cc1ccc(CC(Oc2ccc(C(C)C)cc2)C(=O)O)cc1 (configuration not stated)
3T3-L1 [9]
  Basal uptake: 147%
Mus musculus [13]
  Glucose lowering ob/ob dose: 50 mg/kg
Mus musculus [14]
  Hypoglycemic activity: 113%
Rattus norvegicus [15]; [34]
  ED50: < 50 mg/kg

## C1CCC(NC2CCCCC2)CC1.CC(C)c1ccc(OC(Cc2cccc(Cl)c2)C(=O)O)cc1 (configuration not stated)
3T3-L1 [5]
  Basal uptake: 160%
Mus musculus [3]
  Hypoglycemic activity: 32%
Rattus norvegicus [4]
  ED50: > 50 mg/kg

## C1CCC(NC2CCCCC2)CC1.CC(C)c1ccc(OC(Cc2cccc(F)c2)C(=O)O)cc1 (configuration not stated)
3T3-L1 [5]
  Basal uptake: 111%
Rattus norvegicus [16]
  Inhibition: 3%
Rattus norvegicus [17]
  Inhibition: 38%
Mus musculus [18]
  Hypoglycemic activity: 65%
Mus musculus [3]
  Hypoglycemic activity: 100%
Rattus norvegicus [4]
  ED50: < 25 mg/kg

## O=C(O)C(Cc1ccc(Cl)cc1)Oc1ccccc1 (configuration not stated)
3T3-L1 [19]
  Basal uptake: 100%
L6
  Basal uptake: 86%
Mus musculus [20]
  Hypoglycemic activity: <0%
Rattus norvegicus [15]; [34]
  ED50: > 25 mg/kg

## CC(C)c1ccc(OC(Cc2ccccc2)C(=O)O)cc1 (configuration not stated)
3T3-L1 [9]
  Basal uptake: 79%
Mus musculus [21]
  Hypoglycemic activity: 50%
Rattus norvegicus [15]; [34]
  ED50: 50 mg/kg
Rattus norvegicus [22]
  Inhibition: 25%
Rattus norvegicus [17]
  Inhibition: 41%

## CC(C)c1ccc(OC(C)(Cc2ccccc2)C(=O)[O-])cc1.[Na+] (configuration not stated)
3T3-L1 [23]
  Basal uptake: 126%
3T3-L1 [24]
  Basal uptake: 100%
3T3-L1 [8]
  Basal uptake: 162%
Mus musculus [25]
  Hypoglycemic activity: 3%
Rattus norvegicus [15]; [34]
  ED50: > 10 mg/kg

## CCCc1ccc(CC(C)(Oc2ccc(C(C)C)cc2)C(=O)[O-])cc1.[Na+] (configuration not stated)
3T3-L1 [26]
  Basal uptake: 97%
3T3-L1 [19]
  Basal uptake: 282%
3T3-L1 [27]
  Basal uptake: 100%
3T3-L1 [28]
  Basal uptake: 103%
3T3-L1 [29]
  Basal uptake: 233%
Mus musculus [30]
  Hypoglycemic activity: 69%
Mus musculus [25]
  Hypoglycemic activity: 113%
Mus musculus [10]
  Hypoglycemic activity: 70%
Mus musculus [12]
  Hypoglycemic activity: 134%
Rattus norvegicus [15]; [34]
  ED50: 0.5 mg/kg

## CC(C)c1ccc(OC(C)(Cc2ccc(Cl)cc2)C(=O)O)cc1 (stereo in doubt; 27)
3T3-L1 [9]
  Basal uptake: 214%
Mus musculus [10]; 1 mg/kg
  Hypoglycemic activity: 36%
Mus musculus [11]
  Hypoglycemic activity: 79%
Mus musculus [12]; 5 mg/kg
  Hypoglycemic activity: 65%
Rattus norvegicus [15]
  ED50: 1 mg/kg

## CC(C)c1ccc(OC(C)(Cc2cccc(-c3ccccc3)c2)C(=O)[O-])cc1.[Na+] (configuration not stated)
3T3-L1 [23]
  Basal uptake: 76%
3T3-L1 [31]
  Basal uptake: 87%
3T3-L1 [27]
  Basal uptake: 118%
3T3-L1 [28]
  Basal uptake: 109%
3T3-L1 [29]
  Basal uptake: 193%
3T3-L1 [7]
  Basal uptake: 118%
Mus musculus [30]
  Hypoglycemic activity: 46%
Mus musculus [25]
  Hypoglycemic activity: 83%
Mus musculus [10]
  Hypoglycemic activity: 78%
Mus musculus [12]
  Hypoglycemic activity: 110%
Rattus norvegicus [15]; [34]
  ED50: 0.5 mg/kg

## COc1ccc(OC(Cc2ccc(Cl)cc2)C(=O)O)cc1 (configuration not stated)
L6
  Basal uptake: 98%
Mus musculus [20]
  Hypoglycemic activity: 23%
Rattus norvegicus [15]; [34]
  ED50: > 25 mg/kg

## CC(C)c1ccc(OC(CCCCCc2ccc(Cl)cc2)C(=O)[O-])cc1.[Na+] (configuration not stated)
3T3-L1 [6]
  Basal uptake: 180%
L6
  Basal uptake: 44%
Mus musculus [25]
  Hypoglycemic activity: 32%
Mus musculus [32]
  Hypoglycemic activity: 35%
Mus musculus [21]
  Hypoglycemic activity: 200%
Rattus norvegicus [15]; [34]
  ED50: 10 mg/kg

## CC(C)c1ccc(CC(C)(Oc2ccc(C(C)C)cc2)C(=O)[O-])cc1.[Na+] (configuration not stated)
3T3-L1 [23]
  Basal uptake: 97%
3T3-L1 [26]
  Basal uptake: 93%
3T3-L1 [8]
  Basal uptake: 97%
Mus musculus [25]
  Hypoglycemic activity: 93%
Mus musculus [12]
  Hypoglycemic activity: <0%
Rattus norvegicus [15]; [34]
  ED50: 5 mg/kg

## CC(C)(C)c1ccc(OC(Cc2ccc(Cl)cc2)C(=O)O)cc1 (configuration not stated)
3T3-L1 [23]
  Basal uptake: 92%
3T3-L1 [26]
  Basal uptake: 87%
3T3-L1 [19]
  Basal uptake: <100%
L6
  Basal uptake: 84%
Mus musculus [20]
  Hypoglycemic activity: 53%
Rattus norvegicus [15]; [34]
  ED50: 25 mg/kg

## CC(C)c1ccc(SC(C)(Cc2ccc(Cl)cc2)C(=O)[O-])cc1.[Na+] (configuration not stated)
3T3-L1 [6]
  Basal uptake: 83%
3T3-L1 [7]
  Basal uptake: 119%
3T3-L1 [1]
  Basal uptake: 187%
Mus musculus [2]
  Hypoglycemic activity: 31%
Rattus norvegicus [4]
  ED50: > 10 mg/kg

## C1CCC(NC2CCCCC2)CC1.CC(C)c1ccc(OC(Cc2cccc(C(F)(F)F)c2)C(=O)O)cc1 (configuration not stated)
3T3-L1 [5]
  Basal uptake: 284%
Mus musculus [2]
  Hypoglycemic activity: <0%
Mus musculus [18]
  Hypoglycemic activity: 64%
Mus musculus [3]
  Hypoglycemic activity: 76%
Rattus norvegicus [4]
  ED50: 25 mg/kg

## C1CCC(NC2CCCCC2)CC1.CC(C)c1ccc(OC(Cc2ccccc2C(F)(F)F)C(=O)O)cc1 (configuration not stated)
3T3-L1 [5]
  Basal uptake: 191%
Mus musculus [3]
  Hypoglycemic activity: <0%
Rattus norvegicus [4]
  ED50: > 50 mg/kg

## C1CCC(NC2CCCCC2)CC1.CC(C)c1ccc(OC(CCc2ccc(Cl)cc2)C(=O)O)cc1 (configuration not stated)
3T3-L1 [5]
  Basal uptake: 89%
L6
  Basal uptake: 89%
Mus musculus [18]
  Hypoglycemic activity: 64%
Rattus norvegicus [4]
  ED50: < 25 mg/kg

## Cc1ccc(OC(Cc2ccc(Cl)cc2)C(=O)O)cc1 (configuration not stated)
3T3-L1 [23]
  Basal uptake: 82%
3T3-L1 [26]
  Basal uptake: 88%
3T3-L1 [19]
  Basal uptake: <100%
L6
  Basal uptake: 93%
Mus musculus [20]
  Hypoglycemic activity: 33%
Rattus norvegicus [15]; [34]
  ED50: > 25 mg/kg

## CCc1cccc(CC(C)(Oc2ccc(Cc3ccccc3)cc2)C(=O)[O-])c1.[Na+] (configuration not stated)
3T3-L1 [27]
  Basal uptake: 179%
3T3-L1 [28]
  Basal uptake: 128%
3T3-L1 [29]
  Basal uptake: 265%
Mus musculus [33]
  Hypoglycemic activity: 73%
Mus musculus [30]
  Hypoglycemic activity: 52%
Mus musculus [25]
  Hypoglycemic activity: 101%
Mus musculus [10]
  Hypoglycemic activity: 87%
Mus musculus [12]
  Hypoglycemic activity: 102%
Rattus norvegicus [15]; [34]
  ED50: 0.1 mg/kg
